Measurements: ChEMBL document CHEMBL5543113, “Amphiphilic α-Peptoid-deoxynojirimycin Conjugate-based Multivalent Glycosidase Inhibitor for Hypoglycemic Effect and Fluorescence Imaging” (J Med Chem, 2024)
Blank lines part the entries; values can stand above or below the compound they belong to. Activity calls are given as the source filed them. The rule behind the calls is not given here.

Assays:
[1] = Self assembly property of compound in citric acid-phosphate buffer at pH 3 to 7 at 1 x 10^-4M assessed as diameter by dynamic light scattering spectrometric analysis; type: physicochemical; conditions: pH 3, 100 µM, dose 1 10^-4M
[2] = Inhibition of rice Alpha-glucosidase incubated for 10 mins by Lineweaver-Burk plot analysis; parameters: species or system Oryza sativa
[3] = target: Alpha-glucosidase (Saccharomyces cerevisiae S288c) (UniProt P53341+P38158+P07265); assay: Inhibition of Saccharomyces cerevisiae Alpha-glucosidase at 1 mM incubated for 10 mins by absorbance based microplate spectrophotometric analysis; type: protein assay
[4] = Self assembly property of the compound in water assessed as diameter at 1 x 10^-4 M by transmission electron microscopic analysis; type: physicochemical; conditions: buffer, 100 µM; dose 1 10^-4M
[5] = Inhibition of Aspergillus niger Alpha-glucosidase incubated for 10 mins by Lineweaver-Burk plot analysis
[6] = Self assembly property of the compound in water assessed as mean diameter at 1 x 10^-4 M by dynamic light scattering spectrometric analysis; type: physicochemical; conditions: buffer, 100 µM; dose 1 10^-4M
[7] = Inhibition of C57BL/6J mouse Alpha-glucosidase incubated for 10 mins by Lineweaver-Burk plot analysis
[8] = Self assembly property of compound in citric acid-phosphate buffer at pH 2 at 1 x 10^-4 M assessed as diameter by dynamic light scattering spectrometric analysis; type: physicochemical; conditions: pH 2, 100 µM, dose 1 10^-4M
Mus musculus [9] = assay: Hypoglycemic activity in C57BL/6J mouse assessed as decrease in PBG level at 0.8 mg/kg, po co-administered with maltose and measured after 15 mins by glucometer relative to control; type: functional; parameters: scale not given: the % may be the effect or the level left; conditions: 0.25 h
Mus musculus [10] = assay: Hypoglycemic activity in C57BL/6J mouse assessed as decrease in PBG level at 0.4 mg/kg, po co-administered with maltose and measured after 30 mins by glucometer relative to control; type: functional; parameters: scale not given: the % may be the effect or the level left; conditions: 0.5 h
Mus musculus [11] = assay: Hypoglycemic activity in KKAy diabetic mouse model assessed as decrease in PBG level at 1.6 mg/kg, po co-administered with maltose and measured after 15 mins by glucometer relative to control; type: functional; parameters: scale not given: the % may be the effect or the level left; conditions: 0.25 h
Mus musculus [12] = assay: Hypoglycemic activity in C57BL/6J mouse assessed as blood glucose level at 1.6 mg/kg, po co-administered with maltose and measured after 30 mins by glucometer (380.8 +/- 20.6 mg/dL); type: functional; conditions: 0.5 h
Mus musculus [13] = assay: Hypoglycemic activity in C57BL/6J mouse assessed as decrease in PBG level at 1.6 mg/kg, po co-administered with maltose and measured after 30 mins by glucometer relative to control; type: functional; parameters: scale not given: the % may be the effect or the level left; conditions: 0.5 h
Mus musculus [14] = assay: Hypoglycemic activity in KKAy diabetic mouse model assessed as blood glucose level at 1.6 mg/kg, po co-administered with maltose and measured after 120 mins by glucometer (reference value: 582.6 +/- 22.9 mg/dl); type: functional; conditions: 2 h
Mus musculus [15] = assay: Hypoglycemic activity in KKAy diabetic mouse model assessed as blood glucose level at 1.6 mg/kg, po co-administered with maltose and measured after 60 mins by glucometer (reference value: 582.6 +/- 22.9 mg/dl); type: functional; conditions: 1 h
Mus musculus [16] = assay: Hypoglycemic activity in C57BL/6J mouse assessed as decrease in PBG level at 1.6 mg/kg, po co-administered with maltose and measured after 15 mins by glucometer relative to control; type: functional; parameters: scale not given: the % may be the effect or the level left; conditions: 0.25 h
Mus musculus [17] = assay: Hypoglycemic activity in C57BL/6J mouse assessed as blood glucose level at 0.4 mg/kg, po co-administered with maltose and measured after 30 mins by glucometer (380.8 +/- 20.6 mg/dL); type: functional; conditions: 0.5 h
Mus musculus [18] = assay: Hypoglycemic activity in C57BL/6J mouse assessed as blood glucose level at 0.8 mg/kg, po co-administered with maltose and measured after 30 mins by glucometer (380.8 +/- 20.6 mg/dL); type: functional; conditions: 0.5 h
Mus musculus [19] = assay: Hypoglycemic activity in KKAy diabetic mouse model assessed as decrease in PBG level at 1.6 mg/kg, po co-administered with maltose and measured after 30 mins by glucometer relative to control; type: functional; parameters: scale not given: the % may be the effect or the level left; conditions: 0.5 h
Mus musculus [20] = assay: Hypoglycemic activity in KKAy diabetic mouse model assessed as molar decrease in PBG level at 1.6 mg/kg, po co-administered with maltose and measured after 30 mins by glucometer relative to control; type: functional; parameters: scale not given: the % may be the effect or the level left; conditions: 0.5 h
Mus musculus [21] = assay: Hypoglycemic activity in KKAy diabetic mouse model assessed as blood glucose level at 1.6 mg/kg, po co-administered with maltose and measured after 30 mins by glucometer (reference value: 582.6 +/- 22.9 mg/dl); type: functional; conditions: 0.5 h
Mus musculus [22] = assay: Hypoglycemic activity in C57BL/6J mouse assessed as blood glucose level at 0.4 mg/kg, po co-administered with maltose and measured after 15 mins by glucometer (380.8 +/- 20.6 mg/dl); type: functional; conditions: 0.25 h
Mus musculus [23] = assay: Hypoglycemic activity in C57BL/6J mouse assessed as blood glucose level at 1.6 mg/kg, po co-administered with maltose and measured after 15 mins by glucometer (380.8 +/- 20.6 mg/dL); type: functional; conditions: 0.25 h
Mus musculus [24] = assay: Hypoglycemic activity in KKAy diabetic mouse model assessed as decrease in PBG level at 1.6 mg/kg, po co-administered with maltose and measured after 120 mins by glucometer relative to control; type: functional; parameters: scale not given: the % may be the effect or the level left; conditions: 2 h
Mus musculus [25] = assay: Hypoglycemic activity in C57BL/6J mouse assessed as decrease in PBG level at 0.8 mg/kg, po co-administered with maltose and measured after 30 mins by glucometer relative to control; type: functional; parameters: scale not given: the % may be the effect or the level left; conditions: 0.5 h
Mus musculus [26] = assay: Hypoglycemic activity in C57BL/6J mouse assessed as molar reduction in PBG level at 1.6 mg/kg, po co-administered with maltose and measured after 30 mins by glucometer relative to control; type: functional; parameters: scale not given: the % may be the effect or the level left; conditions: 0.5 h
Mus musculus [27] = assay: Hypoglycemic activity in C57BL/6J mouse assessed as reduction in PBG level measured per DNJ unit at 0.8 mg/kg, po co-administered with maltose and measured at 15 to 30 mins by glucometer relative to control; type: functional; parameters: scale not given: the % may be the effect or the level left; conditions: time 15-30 min
Mus musculus [28] = assay: Hypoglycemic activity in C57BL/6J mouse assessed as blood glucose level at 0.8 mg/kg, po co-administered with maltose and measured after 15 mins by glucometer (380.8 +/- 20.6 mg/dl); type: functional; conditions: 0.25 h
Mus musculus [29] = assay: Hypoglycemic activity in KKAy diabetic mouse model assessed as decrease in PBG level at 1.6 mg/kg, po co-administered with maltose and measured after 60 mins by glucometer relative to control; type: functional; parameters: scale not given: the % may be the effect or the level left; conditions: 1 h
Mus musculus [30] = assay: Hypoglycemic activity in C57BL/6J mouse assessed as decrease in PBG level at 0.4 mg/kg, po co-administered with maltose and measured after 15 mins by glucometer relative to control; type: functional; parameters: scale not given: the % may be the effect or the level left; conditions: 0.25 h
Mus musculus [31] = assay: Hypoglycemic activity in C57BL/6J mouse assessed as reduction in PBG level measured per DNJ unit at 1.6 mg/kg, po co-administered with maltose and measured at 15 to 30 mins by glucometer relative to control; type: functional; parameters: scale not given: the % may be the effect or the level left; conditions: time 15-30 min
Mus musculus [32] = assay: Hypoglycemic activity in KKAy diabetic mouse model assessed as blood glucose level at 1.6 mg/kg, po co-administered with maltose and measured after 15 mins by glucometer (reference value: 582.6 +/- 22.9 mg/dl); type: functional; conditions: 0.25 h
Mus musculus [33] = assay: Hypoglycemic activity in C57BL/6J mouse assessed as reduction in PBG level measured per DNJ unit at 0.4 mg/kg, po co-administered with maltose and measured at 15 to 30 mins by glucometer relative to control; type: functional; parameters: scale not given: the % may be the effect or the level left; conditions: time 15-30 min
Mus musculus [34] = assay: Hypoglycemic activity in KKAy diabetic mouse model assessed as decrease in PBG level at 1.6 mg/kg, po co-administered with 1 g/kg maltose measured after 15 mins by glucometer relative to control; type: functional; parameters: scale not given: the % may be the effect or the level left; conditions: 0.25 h
Mus musculus [35] = assay: Hypoglycemic activity in KKAy diabetic mouse model assessed as blood glucose level at 1.6 mg/kg, po co-administered with 1 g/kg maltose and measured after 15 mins by glucometer (reference value: 453 +/- 38.6 mg/dl); type: functional; conditions: 0.25 h
Mus musculus [36] = assay: Hypoglycemic activity in KKAy diabetic mouse model assessed as blood glucose level at 1.6 mg/kg, po co-administered with 1 g/kg maltose and measured after 30 mins by glucometer (reference value: 491.4 +/- 22.5 mg/dl); type: functional; conditions: 0.5 h
Mus musculus [37] = assay: Hypoglycemic activity in KKAy diabetic mouse model assessed as decrease in PBG level at 1.6 mg/kg, po co-administered with 1 g/kg maltose measured after 30 mins by glucometer relative to control; type: functional; parameters: scale not given: the % may be the effect or the level left; conditions: 0.5 h
Mus musculus [38] = assay: Hypoglycemic activity in KKAy diabetic mouse model assessed as blood glucose level at 1.6 mg/kg, po co-administered with 1 g/kg maltose and measured after 60 mins by glucometer (reference value: 498.6 +/- 31.6 mg/dl); type: functional; conditions: 1 h
Mus musculus [39] = assay: Hypoglycemic activity in KKAy diabetic mouse model assessed as decrease in PBG level at 1.6 mg/kg, po co-administered with 1 g/kg maltose measured at 60 to 120 mins by glucometer; type: functional, organism-based; conditions: time 60-120 min
Mus musculus [40] = assay: Hypoglycemic activity in KKAy diabetic mouse model assessed as blood glucose level at 1.6 mg/kg, po co-administered with 1 g/kg maltose and measured after 120 mins by glucometer (reference value: 278.4 +/- 14.9 mg/dl); type: functional; conditions: 2 h

Activity [1]: ~ 250 nm
Ki [2]: 440 nM
inhibition [3]: inactive
Activity [4]: 79 nm
Ki [5]: 37400 nM
Activity [6]: 252 nm
Ki [7]: 15400 nM
Activity [8]: 211 nm
SMILES: CCCCCCCCCCCCCCCCCCNC(=O)CN(Cc1cn(CCCN2C[C@H](O)[C@@H](O)[C@H](O)[C@H]2CO)nn1)C(=O)CN(Cc1cn(CCCN2C[C@H](O)[C@@H](O)[C@H](O)[C@H]2CO)nn1)C(=O)CN(Cc1cn(CCCN2C[C@H](O)[C@@H](O)[C@H](O)[C@H]2CO)nn1)C(=O)CN(Cc1cn(CCCN2C[C@H](O)[C@@H](O)[C@H](O)[C@H]2CO)nn1)C(C)=O

Ki [2]: 180 nM
inhibition [3]: inactive
Ki [5]: 20600 nM
Ki [7]: 1460 nM
SMILES: OCCN1C[C@H](O)[C@@H](O)[C@H](O)[C@H]1CO [MIGLITOL]
Activity (Mus musculus [9]): 10.7%
Activity (Mus musculus [10]): 8.2%
Activity (Mus musculus [11]): 3.2%
Activity (Mus musculus [12]): 297.4 mg/dL
Activity (Mus musculus [13]): 21.9%
Activity (Mus musculus [14]): 397.2 mg/dL
Activity (Mus musculus [15]): 512.4 mg/dL
Activity (Mus musculus [16]): 19.6%
Activity (Mus musculus [17]): 349.5 mg/dL
Activity (Mus musculus [18]): 318.2 mg/dL
Activity (Mus musculus [19]): 8.6%
Activity (Mus musculus [20]): 1.1%
Activity (Mus musculus [21]): 535.8 mg/dL
Activity (Mus musculus [22]): 348.8 mg/dL
Activity (Mus musculus [23]): 298.8 mg/dL
Activity (Mus musculus [24]): 9.4%
Activity (Mus musculus [25]): 16.5%
Activity (Mus musculus [26]): 2.8%
Activity (Mus musculus [27]): 4.3%
Activity (Mus musculus [28]): 331.9 mg/dL
Activity (Mus musculus [29]): 7.7%
Activity (Mus musculus [30]): 6.2%
Activity (Mus musculus [31]): 2.8%
Activity (Mus musculus [32]): 532.2 mg/dL
Activity (Mus musculus [33]): 4.2%

Ki [2]: 17 nM
inhibition [3]: inactive
Ki [5]: 3600 nM
Ki [7]: 39 nM
SMILES: OC[C@H]1NC[C@H](O)[C@@H](O)[C@@H]1O [DUVOGLUSTAT]
Activity (Mus musculus [34]): 21.8%
Activity (Mus musculus [35]): 354 mg/dL
Activity (Mus musculus [36]): 476.4 mg/dL
Activity (Mus musculus [37]): 3.1%
Activity (Mus musculus [38]): 489 mg/dL
Activity (Mus musculus [39]): inactive
Activity (Mus musculus [40]): 296.4 mg/dL
